According to ChEMBL document CHEMBL5537135, “Novel antimicrobial peptides modified with fluorinated sulfono-γ-AA having high stability and targeting multidrug-resistant bacteria infections” (Eur J Med Chem, 2024):
In brackets after ≈: the same amount, converted by molar mass. Numbered stars: 1 amine (or outer) side, 2 acyl side, 3 side chain; on linkers, the order of the positions; unused ones are H or OH. Square brackets hold non-standard residues; d marks the D form. Peptide text beside a SMILES is read from it. * marks the point of attachment. X4 = N[C@@H](Cc1ccccc1)CN(CC(=O)[*:2])[*:1]; X7 = O=S(=O)(c1cc(C(F)(F)F)cc(C(F)(F)F)c1)*

How the values were obtained:
[1] = tested on: Salmonella typhimurium; test: Antimicrobial activity against Salmonella typhimurium ATCC 14028 assessed as inhibition of visible bacterial growth incubated for 18 hrs by broth-dilution method; assay type: functional, Salmonella enterica subsp. enterica serovar Typhimurium; details: Salmonella enterica
[2] = tested on: Staphylococcus aureus; test: Antimicrobial activity against methicillin-resistant Staphylococcus aureus ATCC 33591 assessed as inhibition of visible bacterial growth incubated for 18 hrs by broth-dilution method; assay type: functional
[3] = tested on: Staphylococcus epidermidis; test: Antimicrobial activity against Staphylococcus epidermidis ATCC 12228 assessed as inhibition of visible bacterial growth incubated for 18 hrs by broth-dilution method; assay type: functional
[4] = tested on: Acinetobacter baumannii; test: Antimicrobial activity against Acinetobacter baumannii ATCC 19606 assessed as inhibition of visible bacterial growth incubated for 18 hrs by broth-dilution method; assay type: functional
[5] = tested on: Erythrocyte; test: Hemolytic activity against mouse Red blood cell incubated for 1 hr; assay type: toxicity, cell-based
[6] = tested on: Escherichia coli; test: Antimicrobial activity against Escherichia coli ATCC 25922 assessed as inhibition of visible bacterial growth incubated for 18 hrs by broth-dilution method; assay type: functional
[7] = tested on: Staphylococcus aureus; test: Antimicrobial activity against Staphylococcus aureus ATCC 25923 assessed as inhibition of visible bacterial growth incubated for 18 hrs by broth-dilution method; assay type: functional
[8] = tested on: Pseudomonas aeruginosa; test: Antimicrobial activity against Pseudomonas aeruginosa ATCC 27853 assessed as inhibition of visible bacterial growth incubated for 18 hrs by broth-dilution method; assay type: functional
[9] = tested on: Bacillus subtilis; test: Antimicrobial activity against Bacillus subtilis ATCC 23857 assessed as inhibition of visible bacterial growth incubated for 18 hrs by broth-dilution method; assay type: functional
[10] = Stability in human serum assessed as half life measured for 5 hrs by RP-HPLC analysis; assay type: ADME, cell-free
[11] = tested on: Staphylococcus aureus; test: Antimicrobial activity against methicillin-resistant Staphylococcus aureus 5 assessed as inhibition of visible bacterial growth incubated for 18 hrs by broth-dilution method; assay type: functional
[12] = tested on: Staphylococcus aureus; test: Antimicrobial activity against methicillin-resistant Staphylococcus aureus 6 assessed as inhibition of visible bacterial growth incubated for 18 hrs by broth-dilution method; assay type: functional
[13] = tested on: Staphylococcus aureus; test: Antimicrobial activity against methicillin-resistant Staphylococcus aureus 8 assessed as inhibition of visible bacterial growth incubated for 18 hrs by broth-dilution method; assay type: functional
[14] = tested on: Staphylococcus aureus; test: Antimicrobial activity against methicillin-resistant Staphylococcus aureus 1 assessed as inhibition of visible bacterial growth incubated for 18 hrs by broth-dilution method; assay type: functional
[15] = tested on: Staphylococcus aureus; test: Antimicrobial activity against methicillin-resistant Staphylococcus aureus 7 assessed as inhibition of visible bacterial growth incubated for 18 hrs by broth-dilution method; assay type: functional
[16] = tested on: Staphylococcus aureus; test: Antimicrobial activity against methicillin-resistant Staphylococcus aureus 4 assessed as inhibition of visible bacterial growth incubated for 18 hrs by broth-dilution method; assay type: functional
[17] = tested on: Staphylococcus aureus; test: Antimicrobial activity against methicillin-resistant Staphylococcus aureus 9 assessed as inhibition of visible bacterial growth incubated for 18 hrs by broth-dilution method; assay type: functional
[18] = tested on: Staphylococcus aureus; test: Antimicrobial activity against methicillin-resistant Staphylococcus aureus 3 assessed as inhibition of visible bacterial growth incubated for 18 hrs by broth-dilution method; assay type: functional
[19] = tested on: Staphylococcus aureus; test: Antimicrobial activity against methicillin-resistant Staphylococcus aureus 10 assessed as inhibition of visible bacterial growth incubated for 18 hrs by broth-dilution method; assay type: functional
[20] = tested on: Staphylococcus aureus; test: Antimicrobial activity against methicillin-resistant Staphylococcus aureus 2 assessed as inhibition of visible bacterial growth incubated for 18 hrs by broth-dilution method; assay type: functional
[21] = tested on: Pseudomonas aeruginosa; test: Antimicrobial activity against multidrug-resistant Pseudomonas aeruginosa 119 assessed as inhibition of visible bacterial growth incubated for 18 hrs by broth-dilution method; assay type: functional
[22] = tested on: Staphylococcus aureus; test: Antibacterial activity against antibiotics-resistant Staphylococcus aureus ATCC 33591 assessed as reduction in microbial growth; assay type: functional
[23] = tested on: Pseudomonas aeruginosa; test: Antimicrobial activity against multidrug-resistant Pseudomonas aeruginosa 125 assessed as inhibition of visible bacterial growth incubated for 18 hrs by broth-dilution method; assay type: functional
[24] = tested on: Pseudomonas aeruginosa; test: Antimicrobial activity against multidrug-resistant Pseudomonas aeruginosa 157 assessed as inhibition of visible bacterial growth incubated for 18 hrs by broth-dilution method; assay type: functional
[25] = tested on: Pseudomonas aeruginosa; test: Antimicrobial activity against multidrug-resistant Pseudomonas aeruginosa 050 assessed as inhibition of visible bacterial growth incubated for 18 hrs by broth-dilution method; assay type: functional
[26] = tested on: Pseudomonas aeruginosa; test: Antimicrobial activity against multidrug-resistant Pseudomonas aeruginosa 061 assessed as inhibition of visible bacterial growth incubated for 18 hrs by broth-dilution method; assay type: functional
[27] = tested on: Pseudomonas aeruginosa; test: Antimicrobial activity against multidrug-resistant Pseudomonas aeruginosa 124 assessed as inhibition of visible bacterial growth incubated for 18 hrs by broth-dilution method; assay type: functional
[28] = tested on: Pseudomonas aeruginosa; test: Antimicrobial activity against multidrug-resistant Pseudomonas aeruginosa 156 assessed as inhibition of visible bacterial growth incubated for 18 hrs by broth-dilution method; assay type: functional
[29] = tested on: Pseudomonas aeruginosa; test: Antibacterial activity against antibiotics-resistant Pseudomonas aeruginosa […] assessed as reduction in microbial growth; assay type: functional
[30] = tested on: Pseudomonas aeruginosa; test: Antimicrobial activity against multidrug-resistant Pseudomonas aeruginosa 085 assessed as inhibition of visible bacterial growth incubated for 18 hrs by broth-dilution method; assay type: functional
[31] = tested on: Pseudomonas aeruginosa; test: Antimicrobial activity against multidrug-resistant Pseudomonas aeruginosa 516 assessed as inhibition of visible bacterial growth incubated for 18 hrs by broth-dilution method; assay type: functional
[32] = tested on: Pseudomonas aeruginosa; test: Antimicrobial activity against multidrug-resistant Pseudomonas aeruginosa 073 assessed as inhibition of visible bacterial growth incubated for 18 hrs by broth-dilution method; assay type: functional

Compound	MIC [1]	MIC [2]	MIC [3]	MIC [4]	MHC [5]	MIC [6]	MIC [7]	MIC [8]	MIC [9]	MIC [11]	MIC [12]	MIC [13]	MIC [14]	MIC [15]	MIC [16]	MIC [17]	MIC [18]	MIC [19]	MIC [20]	MIC [21]	other results
CC(C)C[C@H](NC(=O)[C@H](CC(C)C)NC(=O)[C@H](CCCCN)NC(=O)[C@H](CCCCN)NC(=O)[C@H](CC(C)C)NC(=O)[C@H](C)NC(=O)[C@H](CCCCN)NC(=O)CN(C[C@@H](N)Cc1ccccc1)S(=O)(=O)c1cc(C(F)(F)F)cc(C(F)(F)F)c1)C(N)=O (X7-[X4]KALKKLL-NH2)	8 µg/mL (≈ 6.26 µM)	8 µg/mL (≈ 6.26 µM)	8 µg/mL (≈ 6.26 µM)	16 µg/mL (≈ 12.5 µM)	128 µg/mL	16 µg/mL (≈ 12.5 µM)	8 µg/mL (≈ 6.26 µM)	16 µg/mL (≈ 12.5 µM)	4 µg/mL (≈ 3.13 µM)												
CC(C)C[C@H](NC(=O)[C@H](CC(C)C)NC(=O)[C@H](CCCCN)NC(=O)[C@H](CCCCN)NC(=O)[C@H](CC(C)C)NC(=O)[C@H](CC(C)C)NC(=O)[C@H](CCCCN)NC(=O)CN(C[C@@H](N)Cc1ccccc1)S(=O)(=O)c1cc(C(F)(F)F)cc(C(F)(F)F)c1)C(N)=O (X7-[X4]KLLKKLL-NH2)	8 µg/mL (≈ 6.06 µM)	8 µg/mL (≈ 6.06 µM)	8 µg/mL (≈ 6.06 µM)	16 µg/mL (≈ 12.1 µM)	32 µg/mL	8 µg/mL (≈ 6.06 µM)	4 µg/mL (≈ 3.03 µM)	8 µg/mL (≈ 6.06 µM)	4 µg/mL (≈ 3.03 µM)												half-life [10]: 5.6 h
CC1(C)S[C@@H]2[C@H](NC(=O)[C@H](N)c3ccc(O)cc3)C(=O)N2[C@H]1C(=O)O [AMOXICILLIN]	256 µg/mL (≈ 701 µM)	128 µg/mL (≈ 350 µM)	256 µg/mL (≈ 701 µM)	128 µg/mL (≈ 350 µM)		4 µg/mL (≈ 10.9 µM)	1 µg/mL (≈ 2.74 µM)	256 µg/mL (≈ 701 µM)	256 µg/mL (≈ 701 µM)	32 µg/mL (≈ 87.6 µM)	32 µg/mL (≈ 87.6 µM)	4 µg/mL (≈ 10.9 µM)	4 µg/mL (≈ 10.9 µM)	16 µg/mL (≈ 43.8 µM)	8 µg/mL (≈ 21.9 µM)	8 µg/mL (≈ 21.9 µM)	4 µg/mL (≈ 10.9 µM)	32 µg/mL (≈ 87.6 µM)	4 µg/mL (≈ 10.9 µM)		
C[C@H]1[C@H](NC(=O)/C(=N\OC(C)(C)C(=O)O)c2csc(N)n2)C(=O)N1S(=O)(=O)O [AZTREONAM]																				8 µg/mL (≈ 18.4 µM)	MIC [22]: 32 µg/mL; MIC [23]: 8 µg/mL (≈ 18.4 µM); MIC [24]: 8 µg/mL (≈ 18.4 µM); MIC [25]: 8 µg/mL (≈ 18.4 µM); MIC [26]: 256 µg/mL (≈ 588 µM); MIC [27]: 4 µg/mL (≈ 9.19 µM); MIC [28]: 256 µg/mL (≈ 588 µM); MIC [29]: 32 µg/mL; MIC [30]: 8 µg/mL (≈ 18.4 µM)
C[C@@H](O)[C@H]1C(=O)N2C(C(=O)O)=C(SCCNC=N)C[C@H]12 [IMIPENEM ANHYDROUS]	1 µg/mL (≈ 3.34 µM)	32 µg/mL (≈ 107 µM)	1 µg/mL (≈ 3.34 µM)	1 µg/mL (≈ 3.34 µM)		1 µg/mL (≈ 3.34 µM)	1 µg/mL (≈ 3.34 µM)	2 µg/mL (≈ 6.68 µM)	1 µg/mL (≈ 3.34 µM)	1 µg/mL (≈ 3.34 µM)	1 µg/mL (≈ 3.34 µM)	1 µg/mL (≈ 3.34 µM)	1 µg/mL (≈ 3.34 µM)	1 µg/mL (≈ 3.34 µM)	1 µg/mL (≈ 3.34 µM)	1 µg/mL (≈ 3.34 µM)	1 µg/mL (≈ 3.34 µM)	1 µg/mL (≈ 3.34 µM)	1 µg/mL (≈ 3.34 µM)	2 µg/mL (≈ 6.68 µM)	MIC [31]: 4 µg/mL (≈ 13.4 µM); MIC [22]: 32 µg/mL; MIC [32]: 4 µg/mL (≈ 13.4 µM); MIC [23]: 8 µg/mL (≈ 26.7 µM); MIC [24]: 2 µg/mL (≈ 6.68 µM); MIC [25]: 8 µg/mL (≈ 26.7 µM); MIC [26]: 2 µg/mL (≈ 6.68 µM); MIC [27]: 4 µg/mL (≈ 13.4 µM); MIC [28]: 4 µg/mL (≈ 13.4 µM); MIC [29]: 32 µg/mL; MIC [30]: 8 µg/mL (≈ 26.7 µM)
H-FLKLLKKLL-NH2	16 µg/mL	16 µg/mL	16 µg/mL	16 µg/mL	256 µg/mL	32 µg/mL	16 µg/mL	8 µg/mL	4 µg/mL	8 µg/mL	8 µg/mL	8 µg/mL	4 µg/mL	4 µg/mL	8 µg/mL	4 µg/mL	4 µg/mL	4 µg/mL	8 µg/mL	4 µg/mL	MIC [31]: 8 µg/mL; MIC [32]: 8 µg/mL; half-life [10]: 1.09 h; MIC [23]: 8 µg/mL; MIC [24]: 8 µg/mL; MIC [25]: 8 µg/mL; MIC [26]: 8 µg/mL; MIC [27]: 8 µg/mL; MIC [28]: 8 µg/mL; MIC [30]: 8 µg/mL
